Experimental data reported in article PMC12881670, “Investigation into ligand selectivity and bias at the formyl peptide receptor family” (The Journal of Pharmacology and Experimental Therapeutics, 2025).
Where a SMILES comes first, the peptide text is derived from it. Where no end group is shown, it is not given here. The star is where a group is joined. For = O=C*

Columns and labels:
Hs_FPR2 [1] = target: T1, Hs_FPR2 (Homo sapiens, UniProt P25090); test: ERK1/2 phosphorylation by Western blotting; assay type: cell-based; set-up: Emax: dose or concentration left out as unconfirmed; details: for Log EC50 (M) / EC50: log of EC50, phosphorylation of ERK1/2, HEK293 stable cells; for Log EC50 (M) / Emax (%) / EC50: mean, ND = no pERK signal detected; for Emax (%): phospho-ERK, % of 1 μM WKYMVm
T1 construct: expressed in transfected cells
T1 sequence (P25090 1-351): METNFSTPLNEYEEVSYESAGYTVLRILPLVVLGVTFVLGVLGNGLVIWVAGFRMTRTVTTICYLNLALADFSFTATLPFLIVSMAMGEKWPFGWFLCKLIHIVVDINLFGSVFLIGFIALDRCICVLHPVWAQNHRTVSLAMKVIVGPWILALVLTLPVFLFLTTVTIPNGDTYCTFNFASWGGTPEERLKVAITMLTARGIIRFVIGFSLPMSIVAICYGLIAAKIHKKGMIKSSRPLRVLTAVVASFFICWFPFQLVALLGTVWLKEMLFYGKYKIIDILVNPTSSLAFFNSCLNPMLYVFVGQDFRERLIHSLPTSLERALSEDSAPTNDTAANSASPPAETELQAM

Hs_FPR1 [2] = target: T2, Hs_FPR1 (Homo sapiens, UniProt P21462); test: ERK1/2 phosphorylation by Western blotting; assay type: cell-based; set-up: Emax: dose or concentration left out as unconfirmed; details: for Log EC50 (M) / EC50: log of EC50, phosphorylation of ERK1/2, HEK293 stable cells; for Log EC50 (M) / Emax (%) / EC50: mean, ND = no pERK signal detected; for Emax (%): phospho-ERK, % of 1 μM WKYMVm
T2 construct: expressed in transfected cells
T2 sequence (P21462 1-350): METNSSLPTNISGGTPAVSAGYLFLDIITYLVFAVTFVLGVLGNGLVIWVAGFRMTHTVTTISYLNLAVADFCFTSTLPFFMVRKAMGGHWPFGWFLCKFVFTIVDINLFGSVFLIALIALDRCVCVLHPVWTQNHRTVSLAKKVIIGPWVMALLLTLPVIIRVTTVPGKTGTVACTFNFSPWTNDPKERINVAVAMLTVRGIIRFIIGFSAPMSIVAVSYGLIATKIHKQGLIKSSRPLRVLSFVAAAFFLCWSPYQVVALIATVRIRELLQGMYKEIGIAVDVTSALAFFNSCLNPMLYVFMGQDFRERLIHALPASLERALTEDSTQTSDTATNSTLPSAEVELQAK

Mm_Fpr2 [3] = target: T3, Mm_Fpr2 (Mus musculus, UniProt O88536); test: ERK1/2 phosphorylation by Western blotting; assay type: cell-based; set-up: Emax: dose or concentration left out as unconfirmed; details: for Log EC50 (M) / EC50: log of EC50, phosphorylation of ERK1/2, HEK293 stable cells; for Log EC50 (M) / Emax (%) / EC50: mean, ND = no pERK signal detected; for Emax (%): phospho-ERK, % of 1 μM WKYMVm
T3 construct: expressed in transfected cells
T3 sequence (O88536 1-351): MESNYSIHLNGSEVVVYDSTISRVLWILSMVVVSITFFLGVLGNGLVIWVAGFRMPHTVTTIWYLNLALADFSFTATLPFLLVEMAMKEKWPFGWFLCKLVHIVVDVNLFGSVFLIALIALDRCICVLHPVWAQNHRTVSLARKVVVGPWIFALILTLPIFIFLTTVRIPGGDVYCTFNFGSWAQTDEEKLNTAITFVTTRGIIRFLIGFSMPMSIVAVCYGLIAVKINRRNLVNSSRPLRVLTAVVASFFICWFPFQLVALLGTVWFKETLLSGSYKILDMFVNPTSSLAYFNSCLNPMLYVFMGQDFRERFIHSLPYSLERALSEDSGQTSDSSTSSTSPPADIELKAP

[4] = test system: formyl peptide receptor family (Hs_FPR1, Hs_FPR2, Mm_Fpr1, Mm_Fpr2); test: Summary of main findings: receptor subtype selectivity and ligand bias across all readouts; set-up: species or system human and mouse; details: for Bias: summary grade of ligand bias relative to WKYMVm, key not given; for Notes: summary of main findings, in words
Description: To determine ligand bias, a reference ligand is required, that is, “balanced” for the pathways tested.[37] […] We then used measurements of the activity ratio (Log (Emax/EC50)) for each receptor, ligand, and pathway in an attempt to observe any ligand bias (Fig. 6).

Hs_FPR2 [5] = target: T1, Hs_FPR2; test: Competition binding of fluorescent WKYMVm, flow cytometry; details: for Log IC50 (M): log of IC50, competition with 10 nM K(5/6-FAM)-WKYMVm, HEK293 stable cells, on ice 90 min; for Log IC50 (M) / Max Comp (%): mean, ND = no competition observed; for Max Comp (%): maximum proportion of competition with 10 nM K(5/6-FAM)-WKYMVm
Protocol: (§1) Mean cell fluorescence was then measured for 5000 cells by flow cytometry using either a BD FACScalibur or BD Attune.
(§2) All data were analyzed using GraphPad Prism using the nonlinear regression log(agonist) versus response (3 parameters) function for all assays, except binding, which was analyzed using the One site-FitlogIC50 function. Bias calculations were carried out following IUPHAR guidelines as described,[27]^,[37] and data were presented as the Δ Activity ratio (Log[EmaxB/EC50B])-(Log[EmaxA/EC50A]).

Hs_FPR1 [6] = target: T2, Hs_FPR1; test: as above; details: for Log IC50 (M): log of IC50, competition with 10 nM K(5/6-FAM)-WKYMVm, HEK293 stable cells, on ice 90 min; for Log IC50 (M) / Max Comp (%): mean, ND = no competition observed; for Max Comp (%): maximum proportion of competition with 10 nM K(5/6-FAM)-WKYMVm
Protocol: as §1, §2

Mm_Fpr1 = target: T4, Mm_Fpr1 (Mus musculus, UniProt P33766); test: BRET receptor-RLuc8 interaction with Arrestin 3-YFP; assay type: cell-based; details: for Emax (%) / Log EC50 (M): Arrestin 3 BRET, mean, ND = no interaction detected; for Emax (%): % of response to 1 μM WKYMVm; for Log EC50 (M): log of EC50, HEK293 transient, 10 min
T4 construct: expressed in transfected cells
T4 sequence (P33766 1-364): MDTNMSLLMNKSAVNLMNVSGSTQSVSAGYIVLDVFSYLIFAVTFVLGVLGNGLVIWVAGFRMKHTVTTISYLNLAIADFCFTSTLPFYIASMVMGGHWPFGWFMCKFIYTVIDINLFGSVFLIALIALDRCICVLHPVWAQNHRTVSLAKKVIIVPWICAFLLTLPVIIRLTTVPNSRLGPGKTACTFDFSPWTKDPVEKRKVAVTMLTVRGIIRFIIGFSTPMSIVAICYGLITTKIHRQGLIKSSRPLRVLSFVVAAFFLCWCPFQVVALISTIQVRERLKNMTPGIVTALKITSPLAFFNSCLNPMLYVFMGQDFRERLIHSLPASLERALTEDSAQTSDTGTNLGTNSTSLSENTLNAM
Procedure, shortened: (§3)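 RLuc8-fused FPR donor with Venus-mGsi or YFP-Arrestin 3 acceptor (1:4), transient; replate 24 h, grow 24–48 h. HBSS 30 min, coelenterazine h 5 μM final 5 min pre-compound, then 10 min 37 °C.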

Hs_FPR1 [7] = target: T2, Hs_FPR1; test: as above; assay type: cell-based; details: for Emax (%) / Log EC50 (M): Arrestin 3 BRET, mean, ND = no interaction detected; for Emax (%): % of response to 1 μM WKYMVm; for Log EC50 (M): log of EC50, HEK293 transient, 10 min
Procedure, shortened: as §3

Mm_Fpr2 [8] = target: T3, Mm_Fpr2; test: as above; assay type: cell-based; details: for Emax (%) / Log EC50 (M): Arrestin 3 BRET, mean, ND = no interaction detected; for Emax (%): % of response to 1 μM WKYMVm; for Log EC50 (M): log of EC50, HEK293 transient, 10 min
Procedure, shortened: as §3

Compound: Cc1cccc(-c2oc(C)nc2C(=O)Nc2cnn(Cc3nc(C(C)(F)F)co3)n2)c1 [ACT-389949]
- Log EC50 (M) (Hs_FPR2 [1]): −7.723 M
- Emax (%) (Hs_FPR2 [1]): 81.57%
- Log EC50 (M) (Hs_FPR1 [2]): −7.37 M
- Emax (%) (Hs_FPR1 [2]): 112.1%
- Log EC50 (M) (Mm_Fpr2 [3]): −8.394 M
- Emax (%) (Mm_Fpr2 [3]): 136.1%
- Bias [4]: No
- Log IC50 (M) (Hs_FPR2 [5]): −7.434 M
- Max Comp (%) (Hs_FPR2 [5]): 94.77%
- Log IC50 (M) (Hs_FPR1 [6]): −5.265 M
- Max Comp (%) (Hs_FPR1 [6]): 80.70%
- Emax (%) (Mm_Fpr1): 52.62%
- Log EC50 (M) (Mm_Fpr1): −5.98 M
- Emax (%) (Hs_FPR1 [7]): 86.48%
- Log EC50 (M) (Hs_FPR1 [7]): −6.00 M
- Emax (%) (Mm_Fpr2 [8]): 95.34%
- Log EC50 (M) (Mm_Fpr2 [8]): −7.66 M

Compound: COc1cc(F)c([C@@H]2CNC(=O)[C@H]2NC(=O)Nc2ccccc2)c(F)c1 [BMS-986235]
- Emax (Hs_FPR2 [1]): 116%
- EC50 (Hs_FPR2 [1]): 679 nM
- EC50 (Hs_FPR1 [2]): 16200 nM
- Emax (Mm_Fpr2 [3]): 116%
- EC50 (Mm_Fpr2 [3]): 3.78 nM
- Bias [4]: + (Hs_FPR2)
- Notes [4]: Bias against internalization
- IC50 (Hs_FPR2 [5]): 2440 nM
- competition with K(5/6-FAM)-WKYMVm (Hs_FPR2 [5]; at 10 μM, incomplete competition): ~50%
- Max Comp (%) (Hs_FPR2 [5]): 60.14%
- EC50 (Mm_Fpr1): 6.76 nM
- Emax (Mm_Fpr1): 18.2%
- efficacy, % of WKYMVm (Mm_Fpr1; Mm_Fpr1, mGsi versus Arrestin3 bias comparison): < 20%
- EC50 (Hs_FPR1 [7]): 2290 nM
- Emax (Hs_FPR1 [7]): 5.54%
- EC50 (Mm_Fpr2 [8]): 151 nM
- Emax (Mm_Fpr2 [8]): 100%

Compound: CCCCOc1ccc(C(=O)NN2C(=O)c3ccccc3NC2c2ccc(OC)cc2)cc1 (centres unmarked) [QuinC1]
- Log EC50 (M) (Hs_FPR2 [1]): −5.882 M
- Emax (%) (Hs_FPR2 [1]): 101.7%
- Log EC50 (M) (Hs_FPR1 [2]): −5.86 M
- Emax (%) (Hs_FPR1 [2]): 92.57%
- Log EC50 (M) (Mm_Fpr2 [3]): −4.94 M
- Emax (%) (Mm_Fpr2 [3]): 381.2%
- Bias [4]: No
- Notes [4]: Partial/weak only
- Log IC50 (M) (Hs_FPR2 [5]): −7.399 M
- Max Comp (%) (Hs_FPR2 [5]): 13.23%
- Log IC50 (M) (Hs_FPR1 [6]): −7.943 M
- Max Comp (%) (Hs_FPR1 [6]): 9.96%
- Emax (%) (Mm_Fpr1): 49.50%
- Log EC50 (M) (Mm_Fpr1): −6.33 M
- Emax (%) (Hs_FPR1 [7]): 17.25%
- Log EC50 (M) (Hs_FPR1 [7]): −5.35 M
- Emax (%) (Mm_Fpr2 [8]): 68.75%
- Log EC50 (M) (Mm_Fpr2 [8]): −6.40 M

Compound: CSCC[C@H](NC(=O)[C@H](Cc1ccc(O)cc1)NC(=O)[C@H](CCCCN)NC(=O)[C@@H](N)Cc1c[nH]c2ccccc12)C(=O)N[C@H](C(=O)N[C@H](CCSC)C(N)=O)C(C)C [WKYMVm]
- Emax (Hs_FPR2 [1]): 93.8%
- Emax (Hs_FPR1 [2]): 104%
- Emax (Mm_Fpr2 [3]): 118%
- Emax (Mm_Fpr1): 112%
- Emax (Hs_FPR1 [7]): 105%
- Emax (Mm_Fpr2 [8]): 101%

Compound: CSCC[C@H](NC=O)C(=O)N[C@@H](CC(C)C)C(=O)N[C@@H](Cc1ccccc1)C(=O)N[C@@H](CCCCN)C(=O)O [fMLFK, fMet-Leu-Phe-Lys] (For-MLFK-OH)
- Emax (Hs_FPR2 [1]): 74.3%
- EC50 (Hs_FPR2 [1]): 1320 nM
- Emax (Hs_FPR1 [2]): 112%
- EC50 (Hs_FPR1 [2]): 6.85 nM
- Emax (Mm_Fpr2 [3]): 176%
- EC50 (Mm_Fpr2 [3]): 1240 nM
- IC50 (Hs_FPR2 [5]): 1.47 nM
- Max Comp (%) (Hs_FPR2 [5]): 14.72%
- IC50 (Hs_FPR1 [6]): 586 nM
- Max Comp (%) (Hs_FPR1 [6]): 63.28%
- EC50 (Mm_Fpr1): 7240 nM
- Emax (Mm_Fpr1): 95.2%
- EC50 (Hs_FPR1 [7]): 35.5 nM
- Emax (Hs_FPR1 [7]): 97.4%
- EC50 (Mm_Fpr2 [8]): 16200 nM
- Emax (Mm_Fpr2 [8]): 72.5%

Compound: LESIFRSLLFRVM [MMK1]
- Emax (Hs_FPR2 [1]): 114%
- Log EC50 (M) (Hs_FPR2 [1]): −8.646 M
- Emax (Hs_FPR1 [2]): 40.1%
- Log EC50 (M) (Hs_FPR1 [2]): −6.84 M
- Emax (Mm_Fpr2 [3]): 86.6%
- Log EC50 (M) (Mm_Fpr2 [3]): −6.482 M
- Bias [4]: No
- Notes [4]: Only activity at Hs_FPR2
- Log IC50 (M) (Hs_FPR2 [5]): −5.88 M
- Max Comp (%) (Hs_FPR2 [5]): 100%
- Log IC50 (M) (Hs_FPR1 [6]): −10.05 M
- Max Comp (%) (Hs_FPR1 [6]): 6.82%
